Data published in article PMC10791743, “Selective CK1α degraders exert antiproliferative activity against a broad range of human cancer cell lines” (Nature Communications, 2024).
“And” between values parts separate entries of the source, which are not always exact repeats. Identical values can stand only once.

Experiments:
MOLM-13 cells = experiment: TMT quantitative proteomics in MOLM-13; type: cell-based, human; details: for TMT protein intensity, CDKN1A, replicate values: DMSO 3.10E+04, 3.47E+04; for TMT protein intensity, CSNK1A1, replicate values: DMSO 4.01E+05, 4.09E+05
Protocol: We next carried out a tandem mass tag (TMT) quantitative proteomics experiment[30] to identify the neosubstrates whose degradation is induced by SJ7095. […] We confirmed the proteomics results by immunoblot analysis of CK1α in MOLM-13 cells following treatment with increasing concentrations of SJ7095 over 4 h (Fig. 2b). Under these conditions compound SJ7095 induced dose-dependent reduction of CK1α protein levels with DC50 value of 15 nM.
Each compound was tested in three wells of 2 million MOLM-13 cells each. […] Cells were then collected and washed with DPBS. Washed cells were centrifuged at 400×g for 5 min at 4 °C, the supernatant was removed, and pellets were snap frozen in liquid nitrogen and stored at −80 °C until sample submission.
The experiment was performed with a previously optimized protocol[30] with slight modification. Cell pellets were lysed in lysis buffer (50 mM HEPES, pH 8.5, 8 M urea, and 0.5% sodium deoxycholate). To profile the whole proteome, the protein lysates (approximately 100 µg of protein per sample) were proteolyzed with LysC (Wako) at an enzyme-to-substrate ratio of 1:100 (w/w) for 2 h at 21 °C. Following this the samples were diluted to a final 2 M Urea concentration, and further digested with trypsin (Promega) at an enzyme-to-substrate ratio of 1:50 (w/w) for at least 3 h. The peptides were reduced by adding 1 mM DTT for 30 min at 21 °C followed by alkylation with 10 mM iodoacetamide (IAA) for 30 min in the dark. The unreacted IAA was quenched with 30 mM DTT for 30 min. Finally, the digestion was stopped by adding trifluoroacetic acid (TFA) to 1%, desalted using C18 cartridges (Harvard Apparatus), and dried by speedvac. The purified peptides were resuspended in 50 mM HEPES (pH 8.5), and labeled with TMT reagents (Thermo Scientific). The differentially labeled samples were pooled equally, desalted, and dried for the subsequent peptide fractionation. Peptide analysis by two-dimensional liquid chromatography–tandem mass spectrometry (LC/LC–MS/MS) and MS data analysis are described in Supplementary Material. […]
Identification/quantification of proteins
The MS/MS raw data were processed by a tag-based hybrid search engine, JUMP7. The data was […]
concatenated with a reversed decoy database for evaluating False Discovery Rate (FDR). Searches were performed using a 15 ppm mass tolerance for precursor ions, fully tryptic restriction with two maximal missed cleavages, three maximal modification sites, and the assignment of b, and y ions.
TMT tags on lysine residues and N-termini (+304.2071453 Da for TMT16 and TMT18) were used for static modifications. In addition, oxidation of Methionine (Met) was considered as a dynamic modification (+15.99492 Da). Putative peptide spectral matches (PSMs) were filtered by mass accuracy and then grouped by precursor ion charge state and further filtered by JUMP-based matching scores, Jscore and ΔJn, to achieve the protein FDR below 1%. For quantification, TMT intensities of reporter ions were extracted, filtered, normalized, and summarized into peptide and […]
Differential expression analysis of proteins
Identification of differentially expressed proteins were conducted by the limma R package8. To control multiple testing, the Benjamini-Hochberg method was employed. Proteins with an adjusted […]
p value of < 0.05 and log2 fold change of > 2-fold of standard deviation (SD) were defined as differentially expressed. […]

CRBN−/− MOLM-13 cells = experiment: Wild type versus CRBN−/− MOLM-13 cells (viability, CRBN dependence); type: cell-based, human; design: key to cell viability, dose-response replicate values: % viability = 100 − % activity (RLU normalized to negative control); details: for cell viability, dose-response replicate values: MOLM-13 CRBN KO
Excerpt: Having identified SJ7095 as a compound with a potent antiproliferative effect in MOLM-13 cells, we next examined whether the observed effect was CRBN-dependent. […] In an orthogonal approach, we tested SJ7095 in wild-type and CRBN-knockout MOLM-13 cells in a cell viability assay (Supplementary Fig. 1b).
CRBN^−/− MOLM-13 cells were created using CRISPR-Cas9 technology. Briefly, 1 million MOLM-13 cells were transiently transfected with precomplexed ribonuclear proteins (RNPs) consisting of 400 pmol of chemically modified sgRNA (Synthego), 135pmol of SpCas9 protein (St. Jude Protein Production Core), and 500 ng of pMaxGFP (Lonza) via nucleofection (Lonza, 4D-Nucleofector™ X-unit) using solution SF and program EO100 in a 100 µl cuvette according to the manufacturer’s recommended protocol. Transfected cells (GFP+) were single-cell sorted by flow cytometry (St. Jude Flow Cytometry and Cell Sorting Shared Resource) into 96-well tissue culture-treated plates 5 days post nucleofection. Cells were clonally expanded and screened for the desired targeted modification (out-of-frame indels) via targeted deep sequencing using gene-specific primers with partial Illumina adapter overhangs as previously described. Genotyping of clones was performed using CRIS.py[59]. Knockout clones were identified as clones containing only out-of-frame indels. PowerPlex® Fusion System (Promega) was used to confirm final clone identification (Hartwell Center for Biotechnology at St. Jude). All clones tested negative for mycoplasma by the MycoAlert^TMPlus Mycoplasma Detection Kit (Lonza). CRBN knockout confirmed by immunoblot (Supplementary Material).
MOLM-13 cells were plated in Corning 8804BC white 384-well assay plates at the appropriate cell number per well and incubated overnight at 37 °C in a humidified 5 % CO2 incubator. Compounds were transferred to the assay plate from a dose-response plate using a Labcyte Echo 650 Acoustic Liquid Handler (Beckman Coulter , USA). Cytotoxicity was determined following 72 h of incubation using Promega’s CellTiter-Glo reagent according to the manufacturer’s recommendation.
Luminescence was measured on the Envision plate reader (PerkinElmer, USA). Raw luminescence relative light unit (RLU) values for each compound at each concentration were normalized to obtain % activity using the following equation (1): 100 × [(mean(negctrl) – compound)/(mean (negctrl) – mean (posctrl))]. The % activity was converted to % viability using the following equation (2):
(100 – % activity), and then pooled from replicate experiments prior to fitting. Here, negctrl and posctrl refer to the negative (DMSO) and positive controls (staurosporine) on each plate. Dose-response curves were fit to the Hill equation using the GraphPad Prism (version 10). […]

`O=C1CCC(N2Cc3c(CNC(=O)c4ccc(F)cc4)cccc3C2=O)C(=O)N1` (centres unmarked) [SJ7095] was tested, and the “Log2FC vs. DMSO, CDKN1A (Cyclin-dependent kinase inhibitor 1)” value (MOLM-13 cells; 1uM, 4h) was 1.031, the “Log2FC vs. DMSO, CSNK1A1 (Casein kinase I isoform alpha)” value (MOLM-13 cells; 1uM, 4h) was -1.331 and the “TMT protein intensity, CDKN1A, replicate values” (from here on “TMT protein intensity, CDKN1A”) (MOLM-13 cells; 1uM, 4h) was 6.19E+04 and 7.24E+04. For the same compound, the “TMT protein intensity, CSNK1A1, replicate values” (shortened to “TMT protein intensity, CSNK1A1”) (MOLM-13 cells; 1uM, 4h) was 1.55E+05 and 1.67E+05, the “Log2FC vs. DMSO, CDKN1A (Cyclin-dependent kinase inhibitor 1)” value (MOLM-13 cells; 1uM, 8h) was 1.234 and the “Log2FC vs. DMSO, CSNK1A1 (Casein kinase I isoform alpha)” value (MOLM-13 cells; 1uM, 8h) was -1.306. For the same compound, the “TMT protein intensity, CDKN1A” value (MOLM-13 cells; 1uM, 8h) was 7.09E+04 and 8.39E+04, the “TMT protein intensity, CSNK1A1” value (MOLM-13 cells; 1uM, 8h) was 1.62E+05 and 1.65E+05 and the “Log2FC vs. DMSO, CDKN1A (Cyclin-dependent kinase inhibitor 1)” value (MOLM-13 cells; 1uM, 24h) was 1.074. For the same compound, the “Log2FC vs. DMSO, CSNK1A1 (Casein kinase I isoform alpha)” value (MOLM-13 cells; 1uM, 24h) was -1.500, the “TMT protein intensity, CDKN1A” value (MOLM-13 cells; 1uM, 24h) was 7.28E+04 and 6.55E+04 and the “TMT protein intensity, CSNK1A1” value (MOLM-13 cells; 1uM, 24h) was 1.44E+05 and 1.42E+05. For the same compound, the “Proteins significantly degraded (TMT proteomics)” value (MOLM-13 cells; 5 µM, 4 h) was “significant degradation of only three proteins out of over 9000 identified proteins was observed: CK1α, IKZF1, and IKZF3”, the “Log2FC vs. DMSO, CDKN1A” value (MOLM-13 cells; 5uM, 4h) was 1.546 and the “Log2FC vs. DMSO, CSNK1A1” value (MOLM-13 cells; 5uM, 4h) was -1.318. The “Log2FC vs. DMSO, CDKN1A (Cyclin-dependent kinase inhibitor 1)” value (MOLM-13 cells; 5uM, 8h) was 1.278, the “Log2FC vs. DMSO, CSNK1A1 (Casein kinase I isoform alpha)” value (MOLM-13 cells; 5uM, 8h) was -1.485 and the “TMT protein intensity, CDKN1A” value (MOLM-13 cells; 5uM, 8h) was 8.76E+04 and 7.22E+04. The “TMT protein intensity, CSNK1A1” value (MOLM-13 cells; 5uM, 8h) was 1.51E+05 and 1.38E+05, the “Log2FC vs. DMSO, CDKN1A (Cyclin-dependent kinase inhibitor 1)” value (MOLM-13 cells; 5uM, 24h) was 1.163 and the “Log2FC vs. DMSO, CSNK1A1 (Casein kinase I isoform alpha)” value (MOLM-13 cells; 5uM, 24h) was -1.582. The “TMT protein intensity, CDKN1A” value (MOLM-13 cells; 5uM, 24h) was 7.42E+04 and 7.27E+04, the “TMT protein intensity, CSNK1A1” value (MOLM-13 cells; 5uM, 24h) was 1.48E+05 and 1.23E+05 and the “Log2FC vs. DMSO, CDKN1A (Cyclin-dependent kinase inhibitor 1)” value (MOLM-13 cells; 10uM, 4h) was 1.536. For the same compound, the “Log2FC vs. DMSO, CSNK1A1 (Casein kinase I isoform alpha)” value (MOLM-13 cells; 10uM, 4h) was -1.354, the “TMT protein intensity, CDKN1A” value (MOLM-13 cells; 10uM, 4h) was 1.01E+05 and 8.94E+04 and the “TMT protein intensity, CSNK1A1” value (MOLM-13 cells; 10uM, 4h) was 1.47E+05 and 1.71E+05. The “Antiproliferative activity in wild-type vs CRBN-knockout MOLM-13” value (CRBN−/− MOLM-13 cells) was “CRBN dependent”, the “cell viability, dose-response replicate values” (“cell viability” for short) (CRBN−/− MOLM-13 cells; Concentration 0.00019646) was 106.764 and 101.3 and 98.2605 and the “cell viability” value (CRBN−/− MOLM-13 cells; Concentration 0.00058939) was 112.453 and 102.748 and 97.5209. For the same compound, the “cell viability” value (CRBN−/− MOLM-13 cells; Concentration 0.00176818) was 107.1 and 103.949 and 100.448, the “cell viability” value (CRBN−/− MOLM-13 cells; Concentration 0.00530453) was 108.398 and 94.7486 and 104.144 and the “cell viability” value (CRBN−/− MOLM-13 cells; Concentration 0.0159136) was 99.903 and 106.159 and 104.247. For the same compound, the “cell viability” value (CRBN−/− MOLM-13 cells; Concentration 0.0477407) was 84.8196 and 104.71 and 103.354, the “cell viability” value (CRBN−/− MOLM-13 cells; Concentration 0.143222) was 100.147 and 105.205 and 99.7326 and the “cell viability” value (CRBN−/− MOLM-13 cells; Concentration 0.429667) was 110.361 and 97.2541 and 107.93. For the same compound, the “cell viability” value (CRBN−/− MOLM-13 cells; Concentration 1.289) was 106.321 and 101.904 and 97.9209 and the “cell viability” value (CRBN−/− MOLM-13 cells; Concentration 3.867) was 79.059 and 84.9366 and 87.8303.
